PMC3242641 (European journal of medicinal chemistry, 2011)
Each block holds one molecule with its values, some of them ahead of it.

Columns and labels:
wild-type HBV = assay: Anti-HBV activity, HepG2 AD38 system; assay type: cell-based; settings: read-out: Anti-HBV activity EC50
PBM cells [1] = tested on: PBM cells
HIV-1 = assay type: cell-based
WT HIV-1 RT [2] = biological target: T1, WT HIV-1 RT (Human immunodeficiency virus type 1 group M subtype B, UniProt P04585); assay type: biochemical
human PBM cells = settings: 4 h at 50 μM, PHA activated human PBM cells, 37 °C
PBM cells [3] = assay: Cytotoxicity in PBM cells; settings: cell type not named in the sentence (PBM, CEM and Vero were tested)
WT HIV-1 RT [4] = biological target: T1, WT HIV-1 RT; settings: read-out: K, dNTP; cited from earlier work

Molecule: 9-(3-Azido-2,3-dideoxy-β-L-ribofuranosyl)-2-fluoro-6-aminopurine [Compound 26]
EC50 (wild-type HBV): > 100 µM
IC50 (CEM cells): > 100 µM
IC50 (PBM cells [1]): > 100 µM
EC90 (HIV-1; read-out: Anti-HIV activity EC90): > 100 µM
IC50 (Vero cells): > 100 µM

Molecule: Nc1ccn([C@@H]2CS[C@H](COP(=O)(O)OP(=O)(O)OP(=O)(O)O)O2)c(=O)n1 [Compound 3TC-TP]
Incorporation, fold better than the L-3′-azido-ddNTPs (WT HIV-1 RT [2]): 12-500 fold

Amount of intracellular nucleoside triphosphate (TP) detected (human PBM cells): no detectable TPs
Molecule: [N-]=[N+]=N[C@@H]1C[C@@H](n2cnc3c(Cl)ncnc32)O[C@H]1CO [Compound 7, 9-(3-Azido-2,3-dideoxy-β-L-ribofuranosyl)-6-chloro-9H-purine]

Amount of intracellular nucleoside triphosphate (TP) detected (human PBM cells): below the level of detection
Molecule: COc1ncnc2c1ncn2[C@@H]1C[C@@H](N=[N+]=[N-])[C@H](CO)O1 [Compound 9, 9-(3-Azido-2,3-dideoxy-β-L-ribofuranosyl)-6-methoxyl-9H-purine]

Molecule: CCOC(=O)[C@H](C)NP(=O)(OC[C@@H]1O[C@H](n2cnc3c(N)ncnc32)C[C@H]1N=[N+]=[N-])Oc1ccccc1 (stereo partly drawn) [Compound 11, 3′-Azido-2′, 3′-dideoxy-β-L-adenosine-5′-O-[phenyl-(ethoxy-L-alaninyl)]-phosphate]
Increase in anti-HIV activity versus 10 (HIV-1): 45 fold

Amount of intracellular nucleoside triphosphate (TP) detected (human PBM cells): below the level of detection
Molecule: CNc1ncnc2c1ncn2[C@@H]1C[C@@H](N=[N+]=[N-])[C@H](CO)O1 [Compound 12, 9-(3-Azido-2,3-dideoxy-β-L-ribofuranosyl)-6-methylamino-9H-purine]

Molecule: CCOC(=O)[C@H](C)NP(=O)(OC[C@@H]1O[C@H](n2cnc3c(O)nc(N)nc32)C[C@H]1N=[N+]=[N-])Oc1ccccc1 (stereo partly drawn) [Compound 16, 3′-Azido-2′, 3′-dideoxy-β-L-guanosine-5′-O-[phenyl-(ethoxy-L-alaninyl)]-phosphate]
Anti-HIV-1 activity, in words (HIV-1): inactive

Amount of intracellular nucleoside triphosphate (TP) detected (human PBM cells): no detectable TPs
Molecule: [N-]=[N+]=N[C@@H]1C[C@@H](n2cnc3c(Cl)nc(N)nc32)O[C@H]1CO [Compound 17, 9-(3-Azido-2,3-dideoxy-β-L-ribofuranosyl)-2-amino-6-chloropurine]

Molecule: CCOC(=O)[C@H](C)NP(=O)(OC[C@@H]1O[C@H](n2cnc3c(Cl)nc(N)nc32)C[C@H]1N=[N+]=[N-])Oc1ccccc1 (stereo partly drawn) [Compound 18, 9-(3-Azido-2,3-dideoxy-β-L-ribofuranosyl)-2-amino-6-chloropurine-5-O-[phenyl-(ethoxy-L-alaninyl)]-phosphate]
Amount of intracellular intact prodrug detected (human PBM cells): 12 fmol/10^6 cells

Molecule: CCOC(=O)[C@H](C)NP(=O)(OC[C@@H]1O[C@H](n2cnc3c(N)nc(N)nc32)C[C@H]1N=[N+]=[N-])Oc1ccccc1 (stereo partly drawn) [Compound 22, 9-(3-Azido-2,3-dideoxy-β-L-ribofuranosyl) -2,6-diaminopurine-5-O-(phenyl-[ethoxyl-L-alaninyl])-phosphate]
Observed toxicity (no toxicity up to) (PBM cells [3]): > 100 µM

Molecule: Cc1cn([C@H]2C[C@H](N=[N+]=[N-])[C@@H](CO)O2)c(=O)[nH]c1=O [Compound 27, 3′-Azido-2′-3′-dideoxy-β-L-thymidine]
Anti-HIV-1 activity, in words (HIV-1): inactive

Molecule: CCOC(=O)[C@H](C)NP(=O)(OC[C@@H]1O[C@H](n2cc(C)c(=O)[nH]c2=O)C[C@H]1N=[N+]=[N-])Oc1ccccc1 (stereo partly drawn) [Compound 28, 1-(3′-Azido-2′, 3′-dideoxy-β-L-thymidine)-O-(phenyl-[ethoxyl-L-alaniny])-phosphate]
Anti-HIV-1 activity, in words (HIV-1): inactive

Molecule: Nc1ccn([C@H]2C[C@H](O)[C@@H](COP(=O)(O)OP(=O)(O)OP(=O)(O)O)O2)c(=O)n1 [dCTP]
Kd (WT HIV-1 RT [4]): 1.1 ± 0.4 µM
